Source: patent publication US10941114B2, “Small molecule lipid II inhibitors” (University Of Maryland, Baltimore, priority 2015, dated 2021)

How the values were obtained:
Experiment in all cases: Antibacterial activity assay (MIC, broth dilution)
Type in all cases: cell-based
Enterococcus faecium = conditions: Enterococcus faecium; Table 16; CLSI M07-A10 dilution method; read-out: MIC E. faecium
Procedure: (§1) Determination of the Minimal Inhibitory Concentrations (MIC) by dilution was carried out by broth dilution according to CLSI standards. See CLSI, Methods for Dilution Antimicrobial Susceptibility Tests for Bacteria That Grow Aerobically; Approved Standard—Eighth Edition. 2009, the contents of which are hereby incorporated by reference. Briefly, the minimum inhibitory concentration MIC, is the lowest concentration of a compound that prevents visible growth of a bacterium, in other words at which it has bacteriostatic activity.
For these tests, cation-adjusted Mueller Hinton broth, containing 10% brain-heart infusion (BHI) was used. Concentrations (MIC) are given in μg/mL. The compound was […].
(§2) Compounds were tested for MIC by methods known in the art and described in CLSI, Methods for Dilution Antimicrobial Susceptibility Tests for Bacteria That Grow Aerobically; Approved Standard—Tenth Edition. CLSI document M07-A10. Wayne, Pa.: Clinical and Laboratory Standards Institute, 2015, which is hereby incorporated by reference for these methods.
(§3) Selected compounds also were tested by broth microdilution methods known in the art and described in CLSI, Methods for Dilution Antimicrobial Susceptibility Tests for Bacteria That Grow Aerobically; Approved Standard—Tenth Edition. CLSI document M07-A10. Wayne, Pa.: Clinical and Laboratory Standards Institute, 2015, which is hereby incorporated by reference. Structures of selected compounds in the tables are listed below.

Staphylococcus aureus = conditions: Staphylococcus aureus; Table 16; CLSI M07-A10 dilution method; read-out: MIC S. aureus
Acinetobacter baumannii = conditions: Acinetobacter baumannii; Table 16; CLSI M07-A10 dilution method; read-out: MIC A. baumannii
Procedure: as §1, §2, §3

SMILES	MIC (Acinetobacter baumannii) [µg/mL]	MIC (Enterococcus faecium) [µg/mL]	MIC (Staphylococcus aureus) [µg/mL]
CC[n+]1c(/C=C/c2ccc(N(C)C)cc2)cc(-c2ccc(Br)cc2)cc1-c1ccc(C)cc1.[I-] [Compound 9e1, (E)-4-(4-bromophenyl)-2-(4-(dimethylamino)styryl)-1-ethyl-6-(p-tolyl)pyridin-1-ium iodide]	4	2	2
COc1cc(-c2cc(/C=C/c3ccc(N(C)CCO)cc3)[n+](C)c(-c3ccc(Br)cc3)c2)cc(OC)c1Br.[I-] [Compound 9y3, (E)-4-(4-bromo-3,5-dimethoxyphenyl)-2-(4-bromophenyl)-6-(4-((2-hydroxy-ethyl)(methyl)amino)styryl)-1-methylpyridin-1-ium iodide]	8	8	4
CN(CCC#N)c1ccc(/C=C/c2cc(-c3ccc(Br)cc3Cl)cc(-c3ccc(Br)cc3)[n+]2C)cc1.[I-] [Compound 9z4, (E)-4-(4-bromo-2-chlorophenyl)-2-(4-bromophenyl)-6-(4-((2-cyanoethyl)-(methyl)amino)styryl)-1-methylpyridin-1-ium iodide]	32	4	2
CCN(CC)c1ccc(/C=C/c2cc(-c3cc(OC)c(Br)c(OC)c3)cc(-c3ccc(Br)cc3)[n+]2C)cc1.[I-] [Compound 9y2, (E)-4-(4-bromo-3,5-dimethoxyphenyl)-2-(4-bromophenyl)-6-(4-(diethylamino)-styryl)-1-methylpyridin-1-ium iodide]	8	4	1
COc1cc(-c2cc(/C=C/c3ccc(N(C)CCC#N)cc3)[n+](C)c(-c3ccc(Br)cc3)c2)cc(OC)c1Br.[I-] [Compound 9y4, (E)-4-(4-bromo-3,5-dimethoxyphenyl)-2-(4-bromophenyl)-6-(4-((2-cyano-ethyl)(methyl)amino)styryl)-1-methylpyridin-1-ium iodide]	8	8	4
CN(C)c1ccc(/C=C/c2cc(-c3ccc(Br)cc3)cc(-c3ccc(Br)cc3)[n+]2C)cc1.[I-] [Compound 9, (E)-2,4-bis(4-bromophenyl)-6-(4-(dimethylamino)styryl)-1-methylpyridin-1-ium iodide]	8	8	1
Cc1ccc(/C=C/c2cc(-c3ccc(Br)cc3)cc(-c3ccc(Br)cc3)[n+]2C)cc1.[I-] [Compound 9d, (E)-2,4-bis(4-bromophenyl)-1-methyl-6-(4-methylstyryl)pyridin-1-ium iodide]	> 64	4	1
CC[n+]1c(/C=C/c2ccc(N(C)CCO)cc2)cc(-c2ccc(Br)cc2)cc1-c1ccc(C)cc1 [Compound 9e2]	4	4	2
CN(CCC#N)c1ccc(/C=C/c2cc(-c3ccc(Br)cc3)cc(-c3ccc(Br)cc3)[n+]2C)cc1.[I-] [Compound 9k, (E)-2,4-bis(4-bromophenyl)-6-(4-((2-cyanoethyl)(methyl)amino)styryl)-1-methylpyridin-1-ium iodide]	64	32	32
CCN(CC)c1ccc(/C=C/c2cc(-c3ccc(Br)cc3Cl)cc(-c3ccc(Br)cc3)[n+]2C)cc1.[I-] [Compound 9z2, (E)-4-(4-bromo-2-chlorophenyl)-2-(4-bromophenyl)-6-(4-(diethylamino)-styryl)-1-methylpyridin-1-ium iodide]	2	1	0.5
CN(CCO)c1ccc(/C=C/c2cc(-c3ccc(Br)cc3Cl)cc(-c3ccc(Br)cc3)[n+]2C)cc1.[I-] [Compound 9z3, (E)-4-(4-bromo-2-chlorophenyl)-2-(4-bromophenyl)-6-(4-((2-hydroxyethyl)-(methyl)amino)styryl)-1-methylpyridin-1-ium iodide]	16	4	2
CN(C)c1ccc(/C=C/c2cc(-c3ccc(Br)cc3Cl)cc(-c3ccc(Br)cc3)[n+]2C)cc1.[I-] [Compound 9z1, (E)-4-(4-bromo-2-chlorophenyl)-2-(4-bromophenyl)-6-(4-(dimethylamino)-styryl)-1-methylpyridin-1-ium iodide]	32	8	4

Continued, in another order:

MIC (Acinetobacter baumannii) [µg/mL]	SMILES	MIC (Enterococcus faecium) [µg/mL]	MIC (Staphylococcus aureus) [µg/mL]
64	CCN(CC)c1ccc(/C=C/c2cc(-c3ccc(Br)cc3)cc(-c3ccc(Br)cc3)[n+]2C)cc1F.[I-] [Compound 9j, (E)-2,4-bis(4-bromophenyl)-6-(4-(diethylamino)-3-fluorostyryl)-1-methyl-pyridin-1-ium iodide]	32	32
32	CN(CCO)c1ccc(/C=C/c2cc(-c3ccc(Br)cc3)cc(-c3ccc(Br)cc3)[n+]2C)cc1.[I-] [Compound 9g, (E)-2,4-bis(4-bromophenyl)-6-(4-((2-hydroxyethyl)(methyl)amino)styryl)-1-methylpyridin-1-ium iodide]	8	16
16	CN(C)c1ccc(/C=C/c2cc(-c3cccc(Br)c3)cc(-c3ccc(Br)cc3)[n+]2C)cc1 [Compound 9b]	2	1
16	Cc1ccc(-c2cc(-c3ccc(Br)cc3)cc(/C=C/c3ccc(N(C)CCC#N)cc3)[n+]2C)cc1C.[I-] [Compound 9u, (E)-4-(4-bromophenyl)-2-(4-((2-cyanoethyl)(methyl)amino)styryl)-6-(3,4-dimethylphenyl)-1-methylpyridin-1-ium iodide]	8	2
32	CCN(CC)c1ccc(/C=C/c2cc(-c3ccc(Br)cc3)cc(-c3ccc(Br)cc3)[n+]2C)cc1.[I-] [Compound 9f, (E)-2,4-bis(4-bromophenyl)-6-(4-(diethylamino)styryl)-1-methylpyridin-1-ium iodide]	2	1
16	Cc1ccc(-c2cc(-c3ccc(Cl)cc3)cc(/C=C/c3ccc(N(C)CCC#N)cc3)[n+]2C)cc1.[I-] [Compound 9q, (E)-4-(4-chlorophenyl)-2-(4-((2-cyanoethyl)(methyl)amino)styryl)-1-methyl-6-(p-tolyl)pyridin-1-ium iodide]	2	0.25
8	CCN(CC)c1ccc(/C=C/c2cc(-c3ccc(Br)cc3)cc(-c3ccc(C)cc3C)[n+]2C)cc1.[I-] [Compound 9r, (E)-4-(4-bromophenyl)-2-(4-(diethylamino)styryl)-6-(2,4-dimethylphenyl)-1-methylpyridin-1-ium iodide]	1	0.5
16	CN(C)c1ccc(/C=C/c2cc(-c3ccc(Br)cc3)cc(-c3cccc(Br)c3)[n+]2C)cc1.[I-] [Compound 9l, (E)-2-(3-bromophenyl)-4-(4-bromophenyl)-6-(4-(dimethylamino)styryl)-1-methylpyridin-1-ium iodide]	4	8
4	Cc1ccc(-c2cc(-c3ccc(Cl)cc3)cc(/C=C/c3ccc(N(C)C)cc3)[n+]2C)cc1.[I-] [Compound 9n, (E)-4-(4-chlorophenyl)-2-(4-(dimethylamino)styryl)-1-methyl-6-(p-tolyl)-pyridin-1-ium iodide]	2	4
16	CCN(CC)c1ccc(/C=C/c2cc(-c3ccc(Cl)cc3)cc(-c3ccc(C)cc3)[n+]2C)cc1.[I-] [Compound 9o, (E)-4-(4-chlorophenyl)-2-(4-(diethylamino)styryl)-1-methyl-6-(p-tolyl)pyridin-1-ium iodide]	16	32
16	CN(C)c1ccc(/C=C/c2cc(-c3ccc(Cl)cc3)cc(-c3ccc(Br)cc3)[n+]2C)cc1.[I-] [Compound 9c, (E)-2-(4-bromophenyl)-4-(4-chlorophenyl)-6-(4-(dimethylamino)styryl)-1-methylpyridin-1-ium iodide]	4	0.5
4	Cc1ccc(-c2cc(/C=C/c3ccc(N(C)C)cc3)[n+](C)c(-c3ccc(Br)cc3)c2)cc1 [Compound 9a]	4	0.5
16	Cc1ccc(-c2cc(-c3ccc(Br)cc3)cc(/C=C/c3ccc(N(C)CCO)cc3)[n+]2C)cc1C.[I-] [Compound 9x, (E)-4-(4-bromophenyl)-2-(3,4-dimethylphenyl)-6-(4-((2-hydroxyethyl)(methyl)-amino)styryl)-1-methylpyridin-1-ium iodide]	8	1
8	Cc1ccc(-c2cc(-c3ccc(Br)cc3)cc(/C=C/c3ccc(N(C)C)cc3)[n+]2C)cc1C.[I-] [Compound 9w, (E)-4-(4-bromophenyl)-2-(4-(dimethylamino)styryl)-6-(3,4-dimethylphenyl)-1-methylpyridin-1-ium iodide]	4	1
